Results: patent publication US20260191818A1 (University of South Carolina, priority 2022, published 2026)

Test system: mitochondrial complexes I-V, VDAC, cytochrome c
Assay: Western blot of rectus femoris, mitochondrial content proteins
Format: in vivo, CD2F1 mice
Details: C26+5FU+Quer vs C26+5FU; p=0.01
Method: Protein isolation and western blotting was completed similar to what has been previously described. See, Sougiannis, A. T., et al., Impact of weight loss and partial weight regain on immune cell and inflammatory markers in adipose tissue in male mice. J Appl Physiol (1985), 2020. 129(4): p. 909-919. The rectus femoris (RF) was teased from the other quadriceps muscles, cut in half (proximal/distal), snap frozen in liquid nitrogen, and stored at −80° C. The distal RF was homogenized in Mueller Buffer (50 mM Hepes, 0.1% Triton-x, 4 mM EGTA, 10 mM EDTA, 15 mM Na4P207, 100 mM β-glycerophosphate, 25 mM NaF, and 5 mM NaVO4, with protease inhibitor cocktail) using a bead homogenizer at 4° C. Samples were centrifuged and the supernatant was collected and diluted with a diluent buffer (50% Glycerol, 50 mM Na4P2O7, 2.5 mM EGTA, and 1 mM β-mercaptoethanol with protease inhibitor cocktail). Protein concentrations were determined using the Bradford standard protein assay and protein integrity was confirmed with SDS-PAGE and amido black staining. Between 10-50 μg of muscle protein homogenate was separated via SDS-PAGE and transferred to a PVDF membrane. Membranes were stained with Ponceau Red to confirm even loading and transfer efficiency. […] Images were then scanned, and relative protein expression was determined with ImageJ. […]

O=c1c(O)c(-c2ccc(O)c(O)c2)oc2cc(O)cc(O)c12 [quercetin, 3,4,5,7-pentahydroxylflavone]
change in expression of cytochrome c: 48.9%
